Assay results reported in PubChem BioAssay AID493191 (Broad Institute, 2011).

System: MALME3 melanoma viability, CellTiter-Glo luminescence, 24 h
Test: growth inhibition of MALME3 cells – cell-based, CellTiter-Glo, cherry-picked, orthogonal assay for MITF inhibitor project, dose response (AID 493191)

Structure (SMILES)	AC50
COCCN(CC(=O)NC1CCCCC1)C(=O)/C=C/C(=O)c1ccc(OC)cc1O	6.68 µM
CN1CCN(C2=C(NS(=O)(=O)c3cccs3)C(=O)c3ccccc3C2=O)CC1	14.6 µM
COc1ccc(C(=O)/C=C/C(=O)N(CC(=O)NC2CCCCC2)Cc2ccccc2OC)c(O)c1	4.63 µM
CCOC(=O)c1c(C)oc2c(F)c(F)c(F)c(F)c2c1=O	19.4 µM
CCOc1ccc(-c2ccc(SC)nn2)cc1	26.5 µM
COc1cc2c(cc1OC)C(c1ccccc1)N(C(=O)CCl)CC2 (stereo unspecified)	18 µM
O=C1c2cc([N+](=O)[O-])cc3cc([N+](=O)[O-])cc(c23)C(=O)N1c1ccccn1	21.9 µM
CC(=O)Cn1ncc(Br)c(Br)c1=O	14.6 µM
CCN1CCN(CCCNC(=O)c2ccc3c(c2)NC(=O)/C(=C\c2cccc(C)c2)S3)CC1	28.1 µM
N#CC(C#N)=C1C=CC=CN1/C(=C\c1ccco1)C(=O)c1ccc(Br)cc1	24.6 µM
Cc1c(CCOC(=O)c2ccc(Cl)cc2Cl)sc[n+]1CC(=O)c1ccc(Br)cc1	29.3 µM
O=C(CNC(=O)c1cccc(F)c1)N/N=C/c1ccc([N+](=O)[O-])s1	25.1 µM
CC1=C(CC(=O)c2ccccc2)C(=O)c2ccccc2C1=O	12.7 µM
COc1ccc(-n2c(C)cc(C(=O)CCl)c2C)cc1	19.3 µM
Cc1ccc2nc(C)cc(Nc3ccc([N+](=O)[O-])cc3)c2c1	31.5 µM
O=C1NC2c3c(I)sc(I)c3C(=O)C2O1 (stereo unspecified)	16.6 µM
CCCC(=O)N1CCN(c2ccc(NC(=O)c3ccc([N+](=O)[O-])o3)cc2Cl)CC1	14.4 µM
O=C(N/N=C\c1ccc([N+](=O)[O-])o1)C1COc2ccccc2O1 (stereo unspecified)	32.7 µM
Cc1ccc(-c2nnc(SCC(=O)Nc3ccccc3F)o2)cc1	19.7 µM

Structure (SMILES)	AC50
COc1ccc2nc(N3CCN(C(=O)c4ccc([N+](=O)[O-])o4)CC3)sc2c1	21.7 µM
COc1ccc(C(CCNC(C)c2ccccc2)c2ccc(F)cc2)cc1 (stereo unspecified)	16.7 µM
O=C(Cn1ncc(Cl)c(Cl)c1=O)N1CCc2ccccc21	5.98 µM
CN1CCC(N(C)C(=O)/C=C/c2cn(-c3ccccc3)nc2-c2cccs2)CC1	29.7 µM
Cc1cc(C)c2sc(N(CCCN(C)C)C(=O)COc3ccc(Cl)cc3)nc2c1	32.7 µM
CN(C)CCCNC(=O)/C(=C\c1ccc(-c2ccc(Br)cc2)o1)NC(=O)c1ccccc1	16.3 µM
O=C(CCl)Nc1cccc(-c2cnc3ccccc3n2)c1	15.2 µM
O=C1Nc2ccc(Br)cc2/C1=C/C(=O)c1ccc2c(c1)OCO2	32 µM
Cc1cc(NC(=O)c2cncc(Br)c2)ccc1NC(=O)c1cc2ccccc2o1	17 µM
CCN(CC)CCn1nc2c3c(cccc3c1=O)-c1ccccc1-2	28.4 µM
Oc1ccc(CNc2ccccc2F)c2cccnc12	28.2 µM
CC1CC2(C)Oc3ccccc3CC2C(C)C1CNCCCN(C)C (stereo unspecified)	15.9 µM
Cc1ccc(-n2nnnc2CNC(=O)c2ccc([N+](=O)[O-])o2)cc1C	21.5 µM
O=[N+]([O-])c1ccc(S(=O)(=O)CC(CN2CCCCC2)N2CCCCC2)cc1 (stereo unspecified)	13.4 µM
N=c1n(CC(=O)c2ccc(Br)s2)c2ccccc2n1Cc1ccccc1	24.7 µM
COc1cccc(/C=N/Nc2ccc(C(=O)O)cc2)c1O	33.2 µM
N=c1n(CC(=O)c2ccc([N+](=O)[O-])cc2)c2ccccc2n1Cc1ccccc1	25.4 µM
CC(C)(C)c1ccc(OCCCNCc2ccccc2)cc1	27.4 µM
CCOc1ccc2nc(NC3=NC(c4ccc(OC)cc4)CC(=O)N3)nc(C)c2c1 (stereo unspecified)	24.6 µM

Structure (SMILES)	AC50
COc1ccc(C(=O)/C(C#N)=N/Nc2ccc([N+](=O)[O-])cc2)cc1	16 µM
O=C(CNc1cccc([N+](=O)[O-])c1)N/N=C/c1ccc([N+](=O)[O-])o1	16.9 µM
O=C(Nc1ccc(N2CCN(C(=O)c3ccccc3)CC2)cc1)c1ccc([N+](=O)[O-])o1	9.02 µM
Cc1scc(C(=O)N/N=C/c2ccc([N+](=O)[O-])o2)c1C	15.7 µM
Cc1ccc(NCC(=O)N/N=C\c2ccc([N+](=O)[O-])o2)cc1	25.3 µM
COc1ccccc1OCC(=O)N/N=C/C=C/c1ccc([N+](=O)[O-])o1	20.6 µM
CC1CCCCC1NC(=O)/C(C#N)=C/C=C/c1ccccc1[N+](=O)[O-] (stereo unspecified)	27.5 µM
CCOC(=O)c1c(C)oc2c1C(=O)c1ccccc1C2=O	7.25 µM
CCCCn1c(=N)n(CCOc2ccc(C)cc2)c2ccccc21	26.5 µM
Cc1cc(-n2c(SCC(=O)NCCC3=CCCCC3)nc3n[nH]c(C)c3c2=N)ccc1Cl	28.6 µM
CCC(=O)OCCNc1cc(Sc2nccn2C)c2nonc2c1[N+](=O)[O-]	27.4 µM
CS(=O)(=O)N1CCN(c2ccc(NC(=O)c3ccc([N+](=O)[O-])o3)cc2)CC1	16.7 µM
C=CCNC1=C(Cl)C(=O)c2ccccc2C1=O	15.6 µM
O=C(Nc1ccc(F)cc1)c1nc(S(=O)(=O)Cc2ccccc2)ncc1Cl	12 µM
CCN(Cc1ccccc1)c1ccc(/C=N/N=C(N)N)cc1	24.4 µM
O=C(CCl)Nc1cccc(S(=O)(=O)N2CCCCCC2)c1	17.9 µM
CCCCn1c(=N)n(CC(=O)c2ccc(Br)s2)c2ccccc21	33.2 µM
Cc1ccc([N+](=O)[O-])cc1N1C(=O)CS/C1=N\NC(=O)c1cccnc1	24.2 µM
